# Measurements published in patent US20120016009A1, “Optimized Methods For Delivery Of DSRNA Targeting The PCSK9 Gene” (priority 2008, published 2012).
# In the oligonucleotide strings, read from the 5' end, every base follows the letter of its sugar. An asterisk marks phosphorothioate; unmarked linkages are phosphodiester. Other units and linkages are bracketed, terminal groups are in braces. A string of capitals states the bases alone. d = 2'-deoxy (DNA); m = 2'-O-methyl; r = 2'-OH (RNA)
# Test system: PCSK9 mRNA
# Assay: PCSK9 siRNA screening in HepG2 cells (lipofectamine 2000 transfection, PCSK9 mRNA by Quantigene, normalized to GAP-DH)
# Assay type: cell-based, human
# Conditions: for Mean percent remaining mRNA transcript at siRNA concentration/in cell type 3 nM/HepG2: 3 nM siRNA; for Mean percent remaining mRNA transcript at siRNA concentration/in cell type 30 nM/HepG2: 30 nM siRNA; for Mean percent remaining mRNA transcript at siRNA concentration/in cell type 100 nM/HepG2: 100 nM siRNA
# How it was run: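 PCSK9 silencing was assessed in HepG2 cells by lipofectamine 2000 siRNA transfection in 96-well plates. Twenty-four hours later, lysates were analyzed with the Quantigene Explore Kit, with PCSK9 signal normalized to GAP-DH. Eight datapoints were collected per siRNA, and remaining transcript was expressed as a percentage of cells treated with an unrelated control siRNA duplex.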
Substance,Mean percent remaining mRNA transcript at siRNA concentration/in cell type 3 nM/HepG2 [%],Mean percent remaining mRNA transcript at siRNA concentration/in cell type 30 nM/HepG2 [%],Mean percent remaining mRNA transcript at siRNA concentration/in cell type 100 nM/HepG2 [%]
AD-9595: PCSK9 siRNA (sense rCrUrGrArGrGrArCrCrArGrCrGrGrGrUrArCrUdT*dT; antisense rArGrUrArCrCrCrGrCrUrGrGrUrCrCrUrCrArGdT*dT),32,31,–
AD-9724: PCSK9 siRNA (sense mCmCmUrGrGmUrGrGrArGrGmUrGmUrAmUmCmUmCdT*dT; antisense rGrArGrAmUrAmCrArCrCrUrCmCrArCmCrArGrGdT*dT),–,127,–
AD-9615: PCSK9 siRNA (sense rUrUrCrCrGrGrGrArCrGrArUrGrCrCrUrGrCrCdT*dT; antisense rGrGrCrArGrGrCrArUrCrGrUrCrCrCrGrGrArAdT*dT),–,116,–
AD-9514: PCSK9 siRNA (sense rGrUrArCrCrGrGrGrCrGrGrArUrGrArArUrArCdT*dT; antisense rGrUrArUrUrCrArUrCrCrGrCrCrCrGrGrUrArCdT*dT),–,57,–
AD-9591: PCSK9 siRNA (sense rArCrUrGrUrCrCrCrUrCrCrUrUrGrArGrCrArCdT*dT; antisense rGrUrGrCrUrCrArArGrGrArGrGrGrArCrArGrUdT*dT),–,95,75
AD-9536: PCSK9 siRNA (sense rUrUrArUrUrCrGrGrArArArArGrCrCrArGrCrUdT*dT; antisense rArGrCrUrGrGrCrUrUrUrUrCrCrGrArArUrArAdT*dT),–,157,–
AD-9650: PCSK9 siRNA (sense rGmCmUrGrGmUrGmCmUrArGmCmCmUmUrGmCrGmUdT*dT; antisense rArCrGmCrArArGrGrCmUrArGmCrArCmCrArGrCdT*dT),90,91,–
AD-9709: PCSK9 siRNA (sense mCmCmCrAmUrGmUmCrGrAmCmUrAmCrAmUmCrGrAdT*dT; antisense rUrCrGrArUrGmUrArGrUrCrGrAmCrArUrGrGrGdT*dT),–,104,–
AD-9666: PCSK9 siRNA (sense rArGrArGmUrGrAmCmCrAmCmCrGrGrGrArArAmUdT*dT; antisense rArUrUrUrCrCrCrGrGrUrGrGrUmCrArCrUrCrUdT*dT),–,81,–
AD-9750: PCSK9 siRNA (sense mCrGmUmCrArGmCmUmCmCrArGrGmCrGrGmUmCmCdT*dT; antisense rGrGrArCrCrGrCrCrUrGrGrArGrCrUrGrArCrGdT*dT),–,96,–
AD-9589: PCSK9 siRNA (sense rCrArCrCrGrCrUrGrCrCrGrGrCrArArCrUrUrCdT*dT; antisense rGrArArGrUrUrGrCrCrGrGrCrArGrCrGrGrUrGdT*dT),–,85,67
"AD-9682: PCSK9 siRNA (sense uGGuGGAGGuGuAucuccuTsT; antisense AGGAGAuAcACCUCcACcATsT; as printed in the source, key not given here)",–,38,–
AD-9569: PCSK9 siRNA (sense rArGrCrUrCrCrUrGrCrArCrArGrUrCrCrUrCrCdT*dT; antisense rGrGrArGrGrArCrUrGrUrGrCrArGrGrArGrCrUdT*dT),–,112,–
AD-9721: PCSK9 siRNA (sense mCmUrGrArGrGrAmCmCrArGmCrGrGrGmUrAmCmUdT*dT; antisense rArGmUrArCrCrCrGrCrUrGrGrUrCrCrUmCrArGdT*dT),70,87,–
AD-9663: PCSK9 siRNA (sense rAmCrGrGmUrAmCmCrGrGrGmCrGrGrAmUrGrArAdT*dT; antisense rUrUmCrArUrCrCrGrCrCrCrGrGmUrArCrCrGrUdT*dT),–,102,–
AD-9598: PCSK9 siRNA (sense rCrCrUrGrGrUrGrGrArGrGrUrGrUrArUrCrUrCdT*dT; antisense rGrArGrArUrArCrArCrCrUrCrCrArCrCrArGrGdT*dT),–,83,69
AD-9594: PCSK9 siRNA (sense rGrCrUrGrCrCrGrGrCrArArCrUrUrCrCrGrGrGdT*dT; antisense rCrCrCrGrGrArArGrUrUrGrCrCrGrGrCrArGrCdT*dT),–,95,80
AD-9602: PCSK9 siRNA (sense rCrArGrCrGrGrCrCrGrGrGrArUrGrCrCrGrGrCdT*dT; antisense rGrCrCrGrGrCrArUrCrCrCrGrGrCrCrGrCrUrGdT*dT),–,126,–
AD-9550: PCSK9 siRNA (sense rGrArGrGrGrUrGrUrCrUrArCrGrCrCrArUrUrGdT*dT; antisense rCrArArUrGrGrCrGrUrArGrArCrArCrCrCrUrCdT*dT),–,36,–
AD-9618: PCSK9 siRNA (sense rGrArGrCrArUrGrGrArArUrCrCrCrGrGrCrCrCdT*dT; antisense rGrGrGrCrCrGrGrGrArUrUrCrCrArUrGrCrUrCdT*dT),–,90,–
AD-9646: PCSK9 siRNA (sense mCmUrGrGmUrGmCmUrArGmCmCmUmUrGmCrGmUmUdT*dT; antisense rArArCrGmCrArArGrGrCmUrArGmCrArCmCrArGdT*dT),108,97,–
AD-9578: PCSK9 siRNA (sense rCrArUrUrUrArUrCrUrUrUrUrGrGrGrUrCrUrGdT*dT; antisense rCrArGrArCrCrCrArArArArGrArUrArArArUrGdT*dT),–,61,49
AD-9621: PCSK9 siRNA (sense rUrCrUrGrGrArUrGrGrCrArUrCrUrArGrCrCrAdT*dT; antisense rUrGrGrCrUrArGrArUrGrCrCrArUrCrCrArGrAdT*dT),–,77,–
AD-9720: PCSK9 siRNA (sense rGmCmUrGmCmCrGrGmCrArAmCmUmUmCmCrGrGrGdT*dT; antisense rCrCrCrGrGrArArGrUrUrGrCrCrGrGmCrArGrCdT*dT),–,92,–
AD-9697: PCSK9 siRNA (sense rGmCmCrArGrGmUrGmCmUrGmCmCmUrGmCmUrAmCdT*dT; antisense rGmUrArGmCrArGrGmCrArGmCrArCrCrUrGrGrCdT*dT),89,74,–
AD-9647: PCSK9 siRNA (sense mCmUmCmCmUrArGrAmCrAmCmCrArGmCrAmUrAmCdT*dT; antisense rGmUrArUrGrCrUrGrGrUrGrUrCmUrArGrGrArGdT*dT),–,62,–
AD-9717: PCSK9 siRNA (sense rAmCmUrGmUmCmCmCmUmCmCmUmUrGrArGmCrAmCdT*dT; antisense rGrUrGrCrUmCrArArGrGrArGrGrGrAmCrArGrUdT*dT),–,105,–
